The source of these data is US12606554B2, “Compounds and pharmaceutical compositions thereof for the treatment of diseases” (ONCO3R Therapeutics BV, priority 2019, dated 2026).

Structures are written as SMILES.

Assay [1] has as its system LPS-induced TNFα in monocyte-derived macrophages (MdM). Kind of assay: MdM assay: LPS-triggered TNFα (ELISA). The class given is cell-based. As to conditions: Homo sapiens, Macrophage, LPS 200 ng/mL, supernatant after 20 h. The procedure: SIK inhibition inhibits TNFα and increases IL-10 release in LPS triggered monocyte-derived macrophages (MdM) and dendritic cells (MdDCs) (Clark et al. 2012; Sundberg et al. 2014; Ozanne et al. 2015). This assay evaluates illustrative compounds of the invention for their inhibition of LPS-induced TNFα and LPS triggered IL-10 secretion in monocyte-derived macrophages.
(§1) PBMCs are isolated from human blood samples (buffycoats). The buffy coat is aseptically transferred into a 50 mL Falcon tube, and diluted ½ in PBS. Falcon tubes are filled with 20 mL Lymphoprep™, on top of which 25 mL of the buffy coat is carefully added, tubes are centrifuged for 35 min at 400 g in temperature controlled centrifuge, without brake, at 25° C. PBMCs are aspirated from the white interface layer between sample and Lymphoprep™. PBMCs are washed five times in PBS. Cells are resuspended in RPMI 1640 complete medium supplemented with 10% FBS, 1% P/S, and cell density is determined using a hematologic analyzer (Sysmex XS-500i).
PBMCs are centrifuged at 300×g for 10 min and resuspended at a density of 1.0*10^7 cells/80 μL Miltenyi buffer (PBS, pH 7.4, 1% FBS, 2 mM EDTA).
Starting from this point of the protocol all steps are performed on ice. 20 μL of CD14+ micro-beads are added per 1.0*10^7 cells, the tube is mixed and incubated for 15 min in the fridge at 4° C. Cell suspension volume is adjusted to total volume of 100 mL using Miltenyi buffer, mixed gently and subsequently centrifuged for 10 min at 300×g. Supernatant is discarded and cell pellet is resuspended in 12 mL of Miltenyi buffer.
Four LS columns are placed in the MACS Separator (magnet) from Miltenyi Biotec, and are prewet by rinsing with 3 mL of MACS buffer per column. […]
(§2) The columns are removed from the magnets, and 5 mL of Miltenyi buffer are added to the column to flush out the CD14+ fraction by pushing the plunger into the column. […] The obtained cell pellet is resuspended in 10 mL RPMI w/o FBS, and cell density is determined using a hematologic analyser (Sysmex XS-500i). […]
For orientation: ELISA stands for enzyme-linked immunosorbent assay.

For assay [2], the system named is LPS triggered IL-10 secretion in monocytes. The assay can be described thus: Monocytes assay: LPS-triggered IL-10 (ELISA). The class given is cell-based, human. As to conditions: LPS 200 ng/mL, supernatant after 4 h, maximal fold change vs LPS only. The procedure: SIK inhibition inhibits TNFα and increases IL-10 release in LPS triggered monocyte-derived macrophages (MdM) and dendritic cells (MdDCs) (Clark et al. 2012; Sundberg et al. 2014; Ozanne et al. 2015). This assay evaluates illustrative compounds of the invention for their inhibition of LPS-induced TNFα and LPS triggered IL-10 secretion in monocytes.
as §1, with “XS-500i). […]” for “XS-500i).”
as §2

As a reminder, the EC50 is the concentration that produces a half-maximal response. Take `COc1cc(-c2cnn3cc(OCCN4CCOCC4)ccc23)cc2c1C(=O)N(CC(F)(F)F)CC2` [Cpd 1, 8-methoxy-6-[6-(2-morpholinoethoxy)pyrazolo[1,5-a]pyridin-3-yl]-2-(2,2,2-trifluoroethyl)-3,4-dihydroisoquinolin-1-one]: in assay [1], the EC50 is 100 to 1000 nM. Further, in assay [2], the “IL-10 FCmax median” value was “+++ (>4.5)”. For `COc1cc(-c2cnn3cc(OC(C)(C)CN4CCOCC4)ccc23)cc(OC(F)F)c1C(=O)N[C@@H]1C[C@@H]1F` [Cpd 3, 2-(difluoromethoxy)-4-[6-(1,1-dimethyl-2-morpholino-ethoxy)pyrazolo[1,5-a]pyridin-3-yl]-N-[(1R,2S)-2-fluorocyclopropyl]-6-methoxy-benzamide], in assay [1], the concentration giving a half-maximal response (EC50) lay within 100 to 1000 nM. As for `COc1cc(-c2cnn3cc(OC(C)(C)CO)ccc23)cc(OC(F)F)c1C(=O)N[C@@H]1C[C@@H]1F` [Cpd 2, 2-(difluoromethoxy)-N-[(1R,2S)-2-fluorocyclopropyl]-4-[6-(2-hydroxy-1,1-dimethyl-ethoxy)pyrazolo[1,5-a]pyridin-3-yl]-6-methoxy-benzamide], in assay [1], the EC50 was in the range of 100 to 1000 nM. Moreover, the “IL-10 FCmax median” value in assay [2] was “+ (≤1.5)”.
